The values that follow are results of earlier work, collected in US12727761B2, “Dosimetry system for photodynamic anitmicrobial therapy device of infectious keratitis” (UNIVERSITY OF MIAMI, priority 2020, dated 2026).

The subject of series [1] is keratitis derived Acanthamoeba castellanii.
In another series the test system is Candida albicans. Particulars: erythrosine-mediated PDT.
The test system of another series is corneal infection. Particulars: RB-PDAT as experimental therapy for corneal infection.
Series [2] concerns fungal and bacterial isolates derived from patients with infectious keratitis. Particulars: Rose Bengal photodynamic antimicrobial therapy (RB-PDAT).

For `CN(C)c1ccc2nc3ccc(=[N+](C)C)cc-3sc2c1` [methylene blue], the respiratory activity result in series [1] (methylene blue-mediated PDT) was “significantly reduce”. Besides, the “effects with traditional Acanthamoeba treatment regimens” value in series [1] (methylene blue-mediated PDT combined with traditional treatment regimens) was “synergistic effects”.

For `O=C1OC2(c3ccccc31)c1cc(I)c(O)c(I)c1Oc1c2cc(I)c(O)c1I` [erythrosine], the reduction in concentration in the series on Candida albicans is recorded as 1.97 log10.

Turning to `O=C([O-])c1c(Cl)c(Cl)c(Cl)c(Cl)c1-c1c2cc(I)c(=O)c(I)c-2oc2c(I)c([O-])c(I)cc12.[Na+].[Na+]` [Rose Bengal], the “patients who avoided undergoing emergency corneal transplantation” value in the series with corneal infection is recorded as “approximately 72%”. For the same molecule, the “inhibition of fungal and bacterial isolates” value in series [2] is listed as “fully inhibit”.
